Experimental data as given in US20220009931A1, “NOVEL UREA 6,7-DIHYDRO-4H-PYRAZOLO[1,5-A]PYRAZINES ACTIVE AGAINST THE HEPATITIS B VIRUS (HBV)” (AICURIS GMBH & CO. KG, priority 2018, published 2022).

tested on: HBV; conditions: Hepatitis B virus, HePAD38, 144 h, read-out: Cell Activity

`O=C(Nc1ccc(F)c(Cl)c1)N1CCn2nc(N[C@H]3C[C@H](O)C3)cc2C1` [Example 36, N-(3-chloro-4-fluorophenyl)-2-{[(1r,3r)-3-hydroxycyclobutyl]amino}-4H,5H,6H,7H-pyrazolo[1,5-a]pyrazine-5-carboxamide] and `O=C(Nc1ccc(F)c(Cl)c1)N1CCn2nc(N[C@@H]3CCC[C@H](O)C3)cc2C1` [Example 34, N-(3-chloro-4-fluorophenyl)-2-{[(1R,3S)-3-hydroxycyclohexyl]amino}-4H,5H,6H,7H-pyrazolo[1,5-a]pyrazine-5-carboxamide] fall in the same range of EC50: 1000 to 10000 nM for the first, 1000 to 10000 nM for the second.

`COCC1(CNc2cc3n(n2)CCN(C(=O)Nc2ccc(F)c(Cl)c2)C3)CC1` [Example 15, N-(3-chloro-4-fluorophenyl)-2-({[1-(methoxymethyl)cyclopropyl]methyl}amino)-4H,5H,6H,7H-pyrazolo[1,5-a]pyrazine-5-carboxamide] and `COC1(CNc2cc3n(n2)CCN(C(=O)Nc2ccc(F)c(Cl)c2)C3)CCC1` [Example 18, N-(3-chloro-4-fluorophenyl)-2-{[(1-methoxycyclobutyl)methyl]amino}-4H,5H,6H,7H-pyrazolo[1,5-a]pyrazine-5-carboxamide] cannot be ordered by EC50: under 1000 nM for the first, under 1000 nM for the second.

`O=C(Nc1cc2n(n1)CCN(C(=O)Nc1ccc(F)c(Cl)c1)C2)C1CCN(C2CC2)CC1` [Example 31, N-{5-[(3-chloro-4-fluorophenyl)carbamoyl]-4H,5H,6H,7H-pyrazolo[1,5-a]pyrazin-2-yl}-1-cyclopropylpiperidine-4-carboxamide] and `COC(=O)N1CCC(C(=O)Nc2cc3n(n2)CCN(C(=O)Nc2ccc(F)c(Cl)c2)C3)CC1` [Example 30, methyl 4-({5-[(3-chloro-4-fluorophenyl)carbamoyl]-4H,5H,6H,7H-pyrazolo[1,5-a]pyrazin-2-yl}carbamoyl)piperidine-1-carboxylate] cannot be ordered by EC50: under 1000 nM for the first, under 1000 nM for the second.

First: COC1(CNc2cc3n(n2)CCN(C(=O)Nc2ccc(F)c(Cl)c2)C3)CCOC1 (centres unmarked) [Example 25, N-(3-chloro-4-fluorophenyl)-2-{[(3-methoxyoxolan-3-yl)methyl]amino}-4H,5H,6H,7H-pyrazolo[1,5-a]pyrazine-5-carboxamide]
Second: CC1(CNc2cc3n(n2)CCN(C(=O)Nc2ccc(F)c(Cl)c2)C3)CCOC1 (centres unmarked) [Example 20, N-(3-chloro-4-fluorophenyl)-2-{[(3-methyloxolan-3-yl)methyl]amino}-4H,5H,6H,7H-pyrazolo[1,5-a]pyrazine-5-carboxamide]
The EC50 of the first is higher: 1000 to 10000 nM for the first, under 1000 nM for the second.

First: O=C(Nc1ccc(F)c(Cl)c1)N1CCn2nc(NC3CCC(O)CC3)cc2C1 (centres unmarked) [Example 2, N-(3-chloro-4-fluorophenyl)-2-[(4-hydroxycyclohexyl)amino]-4H,5H,6H,7H-pyrazolo[1,5-a]pyrazine-5-carboxamide]
Second: O=C(Nc1ccc(F)c(Cl)c1)N1CCn2nc(N[C@H]3CC[C@H](O)CC3)cc2C1 [Example 35, N-(3-chloro-4-fluorophenyl)-2-{[(1r,4r)-4-hydroxycyclohexyl]amino}-4H,5H,6H,7H-pyrazolo[1,5-a]pyrazine-5-carboxamide]
The EC50 of the first is lower: under 1000 nM for the first, 1000 to 10000 nM for the second. The first is the more potent here.

`O=C(Nc1ccc(F)c(Cl)c1)N1CCn2nc(NCC3CCCOC3)cc2C1` (centres unmarked) [Example 16, N-(3-chloro-4-fluorophenyl)-2-{[(oxan-3-yl)methyl]amino}-4H,5H,6H,7H-pyrazolo[1,5-a]pyrazine-5-carboxamide] and `O=C(Nc1ccc(F)c(Cl)c1)N1CCn2nc(NCC3CCOC3)cc2C1` (centres unmarked) [Example 10, N-(3-chloro-4-fluorophenyl)-2-{[(oxolan-3-yl)methyl]amino}-4H,5H,6H,7H-pyrazolo[1,5-a]pyrazine-5-carboxamide] fall in the same range of EC50: 1000 to 10000 nM for the first, 1000 to 10000 nM for the second.

`O=C(Nc1cc2n(n1)CCN(C(=O)Nc1ccc(F)c(Cl)c1)C2)C1CCNC(C(F)(F)F)C1` (centres unmarked) [Example 29, N-{5-[(3-chloro-4-fluorophenyl)carbamoyl]-4H,5H,6H,7H-pyrazolo[1,5-a]pyrazin-2-yl}-2-(trifluoromethyl)piperidine-4-carboxamide] and `O=C(Nc1cc2n(n1)CCN(C(=O)Nc1ccc(F)c(Cl)c1)C2)C1CCOC1` (centres unmarked) [Example 9, N-(3-chloro-4-fluorophenyl)-2-(oxolane-3-amido)-4H,5H,6H,7H-pyrazolo[1,5-a]pyrazine-5-carboxamide] cannot be ordered by EC50: under 1000 nM for the first, under 1000 nM for the second.

`O=C(Nc1ccc(F)cc1)N1CCn2nc(NS(=O)(=O)C3(CO)CC3)cc2C1` [Example 14, N-(4-fluorophenyl)-2-[1-(hydroxymethyl)cyclopropanesulfonamido]-4H,5H,6H,7H-pyrazolo[1,5-a]pyrazine-5-carboxamide] and `O=C(Nc1ccc(F)c(Cl)c1)N1CCn2nc(NS(=O)(=O)C3(CO)CC3)cc2C1` [Example 13, N-(3-chloro-4-fluorophenyl)-2-[1-(hydroxymethyl)cyclopropanesulfonamido]-4H,5H,6H,7H-pyrazolo[1,5-a]pyrazine-5-carboxamide] cannot be ordered by EC50: under 100000 nM for the first, under 1000 nM for the second.

`O=C(Nc1ccc(F)c(Cl)c1)N1CCn2nc(NC3(CO)CCC3)cc2C1` [Example 32, N-(3-chloro-4-fluorophenyl)-2-{[1-(hydroxymethyl)cyclobutyl]amino}-4H,5H,6H,7H-pyrazolo[1,5-a]pyrazine-5-carboxamide] and `O=C(Nc1ccc(F)c(Cl)c1)N1CCn2nc(NCC3(CO)CCC3)cc2C1` [Example 21, N-(3-chloro-4-fluorophenyl)-2-({[1-(hydroxymethyl)cyclobutyl]methyl}amino)-4H,5H,6H,7H-pyrazolo[1,5-a]pyrazine-5-carboxamide] cannot be ordered by EC50: under 1000 nM for the first, under 1000 nM for the second.

`CCC(C)(CO)CNc1cc2n(n1)CCN(C(=O)Nc1ccc(F)c(Cl)c1)C2` (centres unmarked) [Example 22, N-(3-chloro-4-fluorophenyl)-2-[(2-ethyl-3-hydroxy-2-methylpropyl)amino]-4H,5H,6H,7H-pyrazolo[1,5-a]pyrazine-5-carboxamide] and `CC(C)(CO)CNc1cc2n(n1)CCN(C(=O)Nc1ccc(F)c(Cl)c1)C2` [Example 17, N-(3-chloro-4-fluorophenyl)-2-[(3-hydroxy-2,2-dimethylpropyl)amino]-4H,5H,6H,7H-pyrazolo[1,5-a]pyrazine-5-carboxamide] cannot be ordered by EC50: under 1000 nM for the first, under 1000 nM for the second.

Compared with `COC1CCC(Nc2cc3n(n2)CCN(C(=O)Nc2ccc(F)c(Cl)c2)C3)CC1` (centres unmarked) [Example 19, N-(3-chloro-4-fluorophenyl)-2-[(4-methoxycyclohexyl)amino]-4H,5H,6H,7H-pyrazolo[1,5-a]pyrazine-5-carboxamide], `O=C(Nc1ccc(F)c(Cl)c1)N1CCn2nc(NC3CCOC3)cc2C1` (centres unmarked) [Example 1, N-(3-chloro-4-fluorophenyl)-2-[(oxolan-3-yl)amino]-4H,5H,6H,7H-pyrazolo[1,5-a]pyrazine-5-carboxamide] is higher in EC50: under 1000 nM for the first, 1000 to 10000 nM for the second. The first is the more potent here.

Compared with `CC1Cn2nc(NCC3CCOC3)cc2CN1C(=O)Nc1ccc(F)c(Cl)c1` (centres unmarked) [Example 4], `CC1Cn2nc(NC(=O)C3CCOC3)cc2CN1C(=O)Nc1ccc(F)c(Cl)c1` (centres unmarked) [Example 3, N-(3-chloro-4-fluorophenyl)-6-methyl-2-(oxolane-3-amido)-4H,5H,6H,7H-pyrazolo[1,5-a]pyrazine-5-carboxamide] is lower in EC50: 1000 to 10000 nM for the first, under 1000 nM for the second.

First: O=C(Nc1ccc(F)c(Cl)c1)N1CCn2nc(NCC3CCOCC3)cc2C1 [Example 6, N-(3-chloro-4-fluorophenyl)-2-{[(oxan-4-yl)methyl]amino}-4H,5H,6H,7H-pyrazolo[1,5-a]pyrazine-5-carboxamide]
Second: O=C(Nc1cc2n(n1)CCN(C(=O)Nc1ccc(F)c(Cl)c1)C2)C1CCOCC1 [Example 8, N-(3-chloro-4-fluorophenyl)-2-(oxane-4-amido)-4H,5H,6H,7H-pyrazolo[1,5-a]pyrazine-5-carboxamide]
The EC50 of the first is higher: 1000 to 10000 nM for the first, under 1000 nM for the second.

`O=C(Nc1cc2n(n1)CCN(C(=O)Nc1ccc(F)c(Cl)c1)C2)C1CCN(c2ccncc2)CC1` [Example 28, N-{5-[(3-chloro-4-fluorophenyl)carbamoyl]-4H,5H,6H,7H-pyrazolo[1,5-a]pyrazin-2-yl}-1-(pyridin-4-yl)piperidine-4-carboxamide] and `CC(=O)Nc1cc2n(n1)CCN(C(=O)Nc1ccc(F)c(Cl)c1)C2` [Example 5, N-(3-chloro-4-fluorophenyl)-2-acetamido-4H,5H,6H,7H-pyrazolo[1,5-a]pyrazine-5-carboxamide] cannot be ordered by EC50: under 1000 nM for the first, under 1000 nM for the second.

Compared with `CC(CO)CNc1cc2n(n1)CCN(C(=O)Nc1ccc(F)c(Cl)c1)C2` (centres unmarked) [Example 23, N-(3-chloro-4-fluorophenyl)-2-[(3-hydroxy-2-methylpropyl)amino]-4H,5H,6H,7H-pyrazolo[1,5-a]pyrazine-5-carboxamide], `O=C(Nc1ccc(F)c(Cl)c1)N1CCn2nc(NCC3(O)CCC3)cc2C1` [Example 33, N-(3-chloro-4-fluorophenyl)-2-{[(1-hydroxycyclobutyl)methyl]amino}-4H,5H,6H,7H-pyrazolo[1,5-a]pyrazine-5-carboxamide] is lower in EC50: 1000 to 10000 nM for the first, under 1000 nM for the second. The second is the more potent here.

`O=C(Nc1ccc(F)c(Cl)c1)N1CCn2nc(NC3(c4ccccc4)CC3)cc2C1` [Example 27, N-(3-chloro-4-fluorophenyl)-2-[(1-phenylcyclopropyl)amino]-4H,5H,6H,7H-pyrazolo[1,5-a]pyrazine-5-carboxamide] and `COCC1(S(=O)(=O)Nc2cc3n(n2)CCN(C(=O)Nc2ccc(F)c(Cl)c2)C3)CC1` [Example 11, N-(3-chloro-4-fluorophenyl)-2-[1-(methoxymethyl)cyclopropanesulfonamido]-4H,5H,6H,7H-pyrazolo[1,5-a]pyrazine-5-carboxamide] cannot be ordered by EC50: under 1000 nM for the first, under 1000 nM for the second.

`CC(Nc1cc2n(n1)CCN(C(=O)Nc1ccc(F)c(Cl)c1)C2)C1CCOC1` (centres unmarked) [Example 26, N-(3-chloro-4-fluorophenyl)-2-{[1-(oxolan-3-yl)ethyl]amino}-4H,5H,6H,7H-pyrazolo[1,5-a]pyrazine-5-carboxamide] and `CC(C)OC1(CNc2cc3n(n2)CCN(C(=O)Nc2ccc(F)c(Cl)c2)C3)CCC1` [Example 24, N-(3-chloro-4-fluorophenyl)-2-({[1-(propan-2-yloxy)cyclobutyl]methyl}amino)-4H,5H,6H,7H-pyrazolo[1,5-a]pyrazine-5-carboxamide] fall in the same range of EC50: 1000 to 10000 nM for the first, 1000 to 10000 nM for the second.

`O=C(Nc1ccc(F)c(Cl)c1)N1CCn2nc(NS(=O)(=O)C3CC3)cc2C1` [Example 12, N-(3-chloro-4-fluorophenyl)-2-cyclopropanesulfonamido-4H,5H,6H,7H-pyrazolo[1,5-a]pyrazine-5-carboxamide] showed an EC50 of under 1000 nM.
